From PubChem BioAssay AID282 (DTP/NCI, 2004)
“And” between values parts separate entries of the source, which are not always exact repeats. Identical values can stand only once. Inconclusive results and toxic doses are left out.

Tested on: BDF1 mice, L1210 terephthalanilide-resistant leukemia ip, survival T/C
Assay: NCI In Vivo Anticancer Drug Screen. Data for tumor model L1210 Leukemia resistant to A Terephthalanilide; NSC 38280 (intraperitoneal) in B6D2F1 (BDF1) mice
Conditions: endpoint: mean survival time, higher = longer survival
Method: The antitumor activity of compounds was measured in mice bearing transplantable tumors. Survival or tumor size were measured and the results are expressed as the measurement made in the treated group (T) divided by the measurement made in the vehicle treated control group (C). The tumor model used in this assay is L1210 Leukemia resistant to A Terephthalanilide; NSC 38280 (intraperitoneal) in B6D2F1 (BDF1) mice

[1] = dose: 1.25 mg/kg/injection, schedule: Q01DX010 (ip), vehicle: saline
[2] = dose: 0.5 mg/kg/injection, schedule: Q01DX Z (ip), vehicle: carboxymethylcellulose (CMC)
[3] = dose: 10.0 mg/kg/injection, schedule: Q01DX Z (ip), vehicle: carboxymethylcellulose (CMC)

CN(C)c1ccc(/C=C/c2ccnc3ccccc23)cc1
T/C (dose: 4.0 mg/kg/injection, schedule: Q01DX010 (ip), vehicle: saline): 96 % of control and 97 % of control | T/C (dose: 6.25 mg/kg/injection, schedule: Q01DX Z (ip), vehicle: saline): 90 % of control | T/C (dose: 8.0 mg/kg/injection, schedule: Q01DX010 (ip), vehicle: saline): 100 % of control and 101 % of control | T/C (dose: 12.5 mg/kg/injection, schedule: Q01DX Z (ip), vehicle: saline): 100 % of control | T/C (dose: 16.0 mg/kg/injection, schedule: Q01DX010 (ip), vehicle: saline): 99 % of control and 100 % of control | T/C (dose: 25.0 mg/kg/injection, schedule: Q01DX Z (ip), vehicle: saline): 100 % of control | T/C (dose: 32.0 mg/kg/injection, schedule: Q01DX010 (ip), vehicle: saline): 101 % of control | T/C (dose: 50.0 mg/kg/injection, schedule: Q01DX Z (ip), vehicle: saline): 90 % of control | T/C (dose: 75.0 mg/kg/injection, schedule: Q01DX Z (ip), vehicle: saline): 96 % of control and 100 % of control | T/C (dose: 100.0 mg/kg/injection, schedule: Q01DX Z (ip), vehicle: saline): 94 % of control and 108 % of control | T/C (dose: 150.0 mg/kg/injection, schedule: Q01DX Z (ip), vehicle: saline): 96 % of control and 102 % of control | T/C (dose: 200.0 mg/kg/injection, schedule: Q01DX Z (ip), vehicle: saline): 94 % of control

N#[N+]c1cnc([O-])[nH]c1=O
T/C [1]: 110 % of control | T/C (dose: 2.5 mg/kg/injection, schedule: Q01DX Z (ip), vehicle: alkali diluted with saline): 102 % of control | T/C (dose: 5.0 mg/kg/injection, schedule: Q01DX Z (ip), vehicle: alkali diluted with saline): 102 % of control | T/C (dose: 7.5 mg/kg/injection, schedule: Q01DX Z (ip), vehicle: alkali diluted with saline): 106 % of control | T/C (dose: 10.0 mg/kg/injection, schedule: Q01DX Z (ip), vehicle: saline): 172 % of control | T/C (dose: 15.0 mg/kg/injection, schedule: Q01DX Z (ip), vehicle: alkali diluted with saline): 108 % of control | T/C (dose: 20.0 mg/kg/injection, schedule: Q01DX Z (ip), vehicle: saline): 96 % of control

Cn1cnc([N+](=O)[O-])c1Sc1nc(N)nc2nc[nH]c12
T/C [2]: 117 % of control | T/C (dose: 2.0 mg/kg/injection, schedule: Q01DX Z (ip), vehicle: carboxymethylcellulose (CMC)): 191 % of control | T/C (dose: 3.75 mg/kg/injection, schedule: Q01DX Z (ip), vehicle: carboxymethylcellulose (CMC)): 170 % of control | T/C [3]: 120 % of control

Nc1nc(=S)c2[nH]cnc2[nH]1
T/C [2]: 165 % of control | T/C (dose: 1.0 mg/kg/injection, schedule: Q01DX Z (ip), vehicle: carboxymethylcellulose (CMC)): 158 % of control | T/C [1]: 156 % of control | T/C (dose: 2.5 mg/kg/injection, schedule: Q01DX010 (ip), vehicle: saline): 173 % of control | T/C (dose: 2.5 mg/kg/injection, schedule: Q01DX Z (ip), vehicle: carboxymethylcellulose (CMC)): 159 % of control | T/C (dose: 5.0 mg/kg/injection, schedule: Q01DX010 (ip), vehicle: saline): 108 % of control and 113 % of control | T/C (dose: 5.0 mg/kg/injection, schedule: Q01DX Z (ip), vehicle: carboxymethylcellulose (CMC)): 109 % of control | T/C (dose: 10.0 mg/kg/injection, schedule: Q01DX010 (ip), vehicle: saline): 90 % of control and 98 % of control | T/C [3]: 96 % of control and 116 % of control | T/C (dose: 15.0 mg/kg/injection, schedule: Q01DX Z (ip), vehicle: carboxymethylcellulose (CMC)): 106 % of control | T/C (dose: 20.0 mg/kg/injection, schedule: Q01DX Z (ip), vehicle: carboxymethylcellulose (CMC)): 96 % of control and 101 % of control | T/C (dose: 31.0 micrograms/kg/injection, schedule: Q01DX Z (ip), vehicle: carboxymethylcellulose (CMC)): 107 % of control | T/C (dose: 125.0 micrograms/kg/injection, schedule: Q01DX Z (ip), vehicle: carboxymethylcellulose (CMC)): 110 % of control

N=C(N)c1ccc(Nc2ccc(C(=N)N)cc2)cc1
T/C (dose: 3.0 mg/kg/injection, schedule: Q01DX010 (ip), vehicle: saline): 94 % of control | T/C (dose: 6.0 mg/kg/injection, schedule: Q01DX010 (ip), vehicle: saline): 91 % of control | T/C (dose: 7.5 mg/kg/injection, schedule: Q01DX Z (ip), vehicle: water): 95 % of control | T/C (dose: 10.0 mg/kg/injection, schedule: Q01DX Z (ip), vehicle: water): 95 % of control | T/C (dose: 12.0 mg/kg/injection, schedule: Q01DX010 (ip), vehicle: saline): 95 % of control | T/C (dose: 15.0 mg/kg/injection, schedule: Q01DX Z (ip), vehicle: water): 95 % of control | T/C (dose: 20.0 mg/kg/injection, schedule: Q01DX Z (ip), vehicle: water): 103 % of control
